For one series, the system named is Swiss Albino mice. The series can be described thus: 7 day repeat dose tolerance study in mice. In kind it is in vivo. As to conditions: 1000, 500 or 300 mg/kg in PBS, IP, 7 consecutive days; male mice. How it is done: Groups of male Swiss Albino mice (6 mice per dosing group) were dosed with either NMN dissolved in phosphate buffered saline (PBS) at 1000 mg/kg, 500 mg/kg, or 300 mg/kg or vehicle control (PBS) via intraperitoneal injection (IP) for 7 consecutive days. The evaluation criteria used to assess toxicity included daily clinical observations and weight gain.

Series [1] can be described thus: Stability in rat plasma / on extraction with organic solvent (LC/MS). The series is classed as in vitro ADME. Here is the method:
Duplicate sets of standard curves of triacetoxy nicotinamide riboside, NMN and nicotinamide riboside in rat plasma were extracted by protein precipitation. Due to sensitivities of compounds to the organic solvent used in extraction, two separate extractions were performed on the standards. The standards were extracted with ACN to obtain triacetoxy nicotinamide riboside and nicotinamide riboside standards, and extracted with MeOH to obtain NMN standards. The standards were analyzed through LC/MS. Due to varying chromatographic properties of the compounds, two separate methods and columns were employed to resolve the compounds. The triacetoxy nicotinamide riboside standards (ACN extraction) were run on an YMC ODS-AQ 2.0×100 mm column, while the NMN standards (MeOH extraction) and nicotinamide riboside standards (ACN extraction) were run on an YMC ODS-AQ 4.5×150 mm column. The resolution procedures were as follows: • 50 uL aliquots of each sample were taken in replicates of four. • Added 200 uL of organic solvent to each sample. • Vortexed samples and centrifuged at 5000 g's for 10 minutes. • Transferred supernatant to new tubes (200 uL), and dried down in Speed-Vac. • Reconstituted samples in 200 uL 95:5 ddH2O:ACN, and vortexed 10 minutes on platform vortexer at setting 10. […] Though the curves may be quantitated separately, they cannot be quantitated together. […]

For series [2], the system named is retinal ganglion cells (RGCs). The series can be described thus: Neuroprotection of retinal ganglion cells in EAE mice with acute optic neuritis (intravitreal treatment). The settings on record: for RGC numbers (FG-labeled cells in 12 standardized fields per retina): EAE eyes with optic neuritis; for Neuroprotection for RGCs during acute optic neuritis in EAE: dose-dependent manner. How it is done: Study outline: The neuroprotective effects of nicotinamide riboside were examined in EAE mice with optic neuritis. […] To induce EAE, mice were immunized several days later with 300 μg PLP emulsified in complete Freund's adjuvant (CFA), and control mice (without EAE) were mock-immunized with phosphate buffered saline (PBS) in CFA. All mice received 200 ng intraperitoneal pertussis toxin (PT) on the day of immunization (day 0) and again on day 2.
Eyes were treated with nicotinamide riboside by intravitreal (ivt) injections with a volume of 0.8 μl/injection of a stock solution of either 0.1 M or 0.4 M nicotinamide riboside in PBS (Groups 2, 4 and 5). […] Treament with nicotinamide riboside, as well as PBS control injections, were given ivt on days 0, 4, 7 and 11. Mice were scored daily for clinical EAE, and were sacrificed on day 14 by overdose with ketamine and xylazine.
Retinas were dissected and whole-mounted for fluorescent microscopy. RGC numbers were quantified by counting FG-labeled cells in 12 standardized fields in each retina. Optic nerves were dissected and processed for histology. Cut sections stained by H & E were evaluated for the presence of inflammatory cells to determine acute optic neuritis. RGCs were compared between PBS-treated and nicotinamide riboside-treated eyes with optic neuritis to determine whether nicotinamide riboside prevents loss of neurons.

Consider 3 compounds from patent US20060229265A1, “Nicotinamide riboside and analogues thereof” (priority 2005, published 2006).

For the compound `NC(=O)c1ccc[n+]([C@@H]2O[C@H](COP(=O)([O-])O)[C@@H](O)[C@H]2O)c1` [NMN, nicotinamide mononucleotide], in the series with Swiss Albino mice, the “Clinical signs of toxicity” value is recorded as “None of the animals showed clinical signs of toxicity” and the “Weight gain by study termination” value is “All animals in the study gained weight”.

With `CC(=O)OCC1OC([n+]2cccc(C(N)=O)c2)C(OC(C)=O)C1OC(C)=O` (stereo not shown) [Triacetoxy nicotinamide riboside, triacetoxy nicotinamide riboside], the “Hydrolysis on extraction from rat plasma” value is recorded as “less strongly so” in series [1] (extracted with ACN, compared with MeOH) and “hydrolyzes into nicotinamide riboside” in series [1] (extracted with MeOH).

Turning to `NC(=O)c1ccc[n+]([C@@H]2O[C@H](CO)[C@@H](O)[C@H]2O)c1` [nicotinamide riboside], the “RGC numbers (FG-labeled cells in 12 standardized fields per retina)” value in series [2] (100 mM nicotinamide riboside stock, 0.8 μl ivt on days 0, 4, 7, 11 (estimated ocular 19 mM), day 14, Group 4, PBS-treated 268±59, control 691±81) is 505±36 RGCs; in series [2] (400 mM nicotinamide riboside stock, 0.8 μl ivt on days 0, 4, 7, 11 (estimated ocular 76 mM), day 14, Group 5, p<0.01) it was 710±67 RGCs. Besides, the “Incidence of optic neuritis, treated mice vs. controls” value in series [2] (EAE mice, ivt treatment) is “did not differ”. For the same compound, the “Inflammatory cell infiltration (optic nerve)” value in series [2] (EAE mice, ivt treatment) is “does not prevent”. Further, the “Clinical EAE, treated mice vs. controls” value in series [2] (EAE mice, ivt treatment, scored daily) is “did not differ”. For the same compound, the figures for the “Neuroprotection for RGCs during acute optic neuritis in EAE” value in series [2] and in series [2] (listed as Nicotinamide riboside) were “effective” and “neuroprotective”, respectively. Besides, the “Toxicity to RGCs” value in series [2] (mouse, in vivo) is reported as “not toxic”. Also, the “Difference in RGC numbers between control eyes and non-EAE eyes treated” value in series [2] (non-EAE eyes, ivt treatment (Group 2) vs. untreated control (Group 1), day 14) is “no difference”.
